Experimental data taken from PubChem BioAssay (NCI).
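Results reflect a 48-hour exposure of cells in 96-well plates to compound at five concentrations. TGI: concentration producing complete growth inhibition.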

Key:
Assay in all cases: NCI tumour cell line growth inhibition, 48 h
[1] = test system: MDA-MB-435
[2] = test system: UO-31 renal
[3] = test system: OVCAR-8 ovarian
[4] = test system: NCI-H522 lung
[5] = test system: MOLT-4 leukemia
[6] = test system: SK-MEL-5 melanoma
[7] = test system: CCRF-CEM leukemia
[8] = test system: A498 renal
[9] = test system: T-47D breast
[10] = test system: HL-60(TB) leukemia
[11] = test system: MDA-N
[12] = test system: RPMI-8226 leukemia
[13] = test system: K-562 leukemia
[14] = test system: SNB-75 CNS
[15] = test system: HOP-62 NSCLC
[16] = test system: EKVX NSCLC
[17] = test system: RXF 393 renal
[18] = test system: NCI-H460 lung
[19] = test system: HCT-15 colon
[20] = test system: HOP-92 NSCLC
[21] = test system: NCI/ADR-RES ovarian
[22] = test system: UACC-257 melanoma
[23] = test system: SF-295 CNS
[24] = test system: SK-MEL-28 melanoma
[25] = test system: IGROV1 ovarian
[26] = test system: SNB-19 CNS
[27] = test system: PC-3 prostate
[28] = test system: KM12 colon
[29] = test system: LOX IMVI melanoma
[30] = test system: A549 NSCLC
[31] = test system: DU-145 prostate
[32] = test system: TK-10 renal
[33] = test system: SN12C renal
[34] = test system: HCC-2998 colon
[35] = test system: OVCAR-3 ovarian
[36] = test system: ACHN renal
[37] = test system: OVCAR-5 ovarian
[38] = test system: MALME-3M melanoma
[39] = test system: HCT-116 colon
[40] = test system: NCI-H23 lung
[41] = test system: SF-539 CNS
[42] = test system: 786-0 renal
[43] = test system: U251 CNS
[44] = test system: SR leukemia
[45] = test system: NCI-H226 lung
[46] = test system: M14 melanoma
[47] = test system: MCF7 breast
[48] = test system: CAKI-1 renal
[49] = test system: MDA-MB-231 breast
[50] = test system: SF-268 CNS
[51] = test system: OVCAR-4 ovarian
[52] = test system: HS 578T breast
[53] = test system: HT29 colon
[54] = test system: SW-620 colon
[55] = test system: BT-549 breast
[56] = test system: SK-OV-3 ovarian
[57] = test system: COLO 205 colon
[58] = test system: UACC-62 melanoma

Measured: TGI

CCOC(=O)C1(N)CC1
not listed: [55] | [56] | [57] | [58]
> 100 µM: all other assays above

CC(=Nc1ccc(Cl)c(Cl)c1)c1ccncc1
not listed: [1] | [2] | [6] | [8] | [9] | [10] | [12] | [16] | [19] | [22] | [25] | [30] | [31] | [34] | [36] | [37] | [38] | [41] | [44] | [47] | [48]
> 100 µM: all other assays above
